{
  "source": "patent US20060292076A1",
  "about": "“Antimicrobial mediated ozone generation” (priority 2002, published 2006)",
  "molecules": {"B1": {"name": "RNase A: non-immunoglobulin protein, Amersham Pharmacia (protein, UniProt P61823 27-150, looked up)", "Ribonuclease pancreatic": "KETAAAKFERQHMDSSTSAASSSNYCNQMMKSRNLTKDRCKPVNTFVHESLADVQAVCSQKNVACKNGQTNCYQSYSTMSITDCRETGSSKYPNCAYKTTQANKHIIVACEGNPYVPVHFDASV"}, "B2": {"name": "catalase: enzyme that converts H2O2 to water and molecular oxygen (protein, UniProt P00432 2-527, looked up)", "Catalase": "ADNRDPASDQMKHWKEQRAAQKPDVLTTGGGNPVGDKLNSLTVGPRGPLLVQDVVFTDEMAHFDRERIPERVVHAKGAGAFGYFEVTHDITRYSKAKVFEHIGKRTPIAVRFSTVAGESGSADTVRDPRGFAVKFYTEDGNWDLVGNNTPIFFIRDALLFPSFIHSQKRNPQTHLKDPDMVWDFWSLRPESLHQVSFLFSDRGIPDGHRHMNGYGSHTFKLVNANGEAVYCKFHYKTDQGIKNLSVEDAARLAHEDPDYGLRDLFNAIATGNYPSWTLYIQVMTFSEAEIFPFNPFDLTKVWPHGDYPLIPVGKLVLNRNPVNYFAEVEQLAFDPSNMPPGIEPSPDKMLQGRLFAYPDTHRHRLGPNYLQIPVNCPYRARVANYQRDGPMCMMDNQGGAPNYYPNSFSAPEHQPSALEHRTHFSGDVQRFNSANDDNVTQVRTFYLKVLNEEQRKRLCENIAGHLKDAQLFIQKKAVKNFSDVHPEYGSRIQALLDKYNEEKPKNAVHTYVQHGSHLSAREKANL"}},
  "key": {"[1]": {"assay": "H2O2 formation with hematoporphyrin IX sensitization and visible light (sensitization and quenching assays)", "assay_type": "biochemical", "conditions": "D2O or NaN3 (40 mM)", "procedure": "Sensitization and Quenching Assays. A solution of 31127 (100 μl of horse IgG, 6.7 μM) in PBS (pH 7.4, 4% dimethylformamide) and hematoporphyrin IX (40 μM) was placed in proximity to a strip light. Hydrogen peroxide concentration was determined as described herein. […]\nAssay for H2O2 production as a function of the efficiency of ^1O2 formation via ^3O2 sensitization with hematoporphyrin IX: The assay is a modification of a procedure developed by H. Sakai and co-workers, Proc. SPE-Int. Soc. Opt. Eng., 2371, 264 (1995). In brief, the horse poly-IgG (1 mg/mL) in PBS (50 mM, pH 7.4) and hematoporphyrin IX (40 μM) is irradiated with white light from a transilluminator. Aliquots are removed (50 μL) and the concentration of H2O2 and 3-aminophthalic acid measured simultaneously. H2O2 concentration was measured by the amplex red assay (Zhou et al., Anal. Biochem., 253, 162 (1997)). 3-Aminophthalic acid concentration was measured by reversed-phase HPLC on a Hitachi D4000 series machine with an Adsorbosphere-C18 column, a UV detector at 254 nm, and a mobile phase of acetonitrile/water (0.1% TFA) of 18:82 at 1 mL/min (retention time of luminol=7.4 min and 3-aminophthalic acid 3.5 min). The concentrations of luminol and 3-aminophthalic acid were determined by comparison of peak height and area to control samples. […]"}, "[2]": {"system": "E. coli", "assay": "Bactericidal assay, E. coli (strain not singled out or both serotypes)", "assay_type": "cell-based", "procedure": "(§1) In a typical experiment, a culture of E. coli (in log phase growth, OD600=0.2-0.3) was repeatedly pelleted (3×3,500 rpm) and resuspended in PBS (pH 7.4). The PBS suspended cells were then added to glass vials and cooled to 4° C. Hematoporphyrin IX (40 μM) and antibody (20 μM) were added and the vials were either placed on a light box (visible light, 2.8 mW cm^−2) or in the dark at 4° C. and incubated for 1 h. Viability was determined by recovery of colony forming units (CFUs) on agar plates. Each experiment was performed at least in duplicate.\nas §1, with “washed in PBS by pelleting” for “pelleted”, “rpm) the cells” for “rpm)”, “resuspending them” for “resuspended”"}, "[3]": {"assay": "Production of hydrogen peroxide by immunoglobulins and proteins under UV irradiation (Amplex Red assay)", "assay_type": "biochemical", "conditions": "for ability of non-immunoglobulin proteins to reduce ^1O2 / generate H2O2: irradiation in PBS", "procedure": "All assays were carried out in PBS (10 mM phosphate/160 mM sodium chloride, pH 7.4). Commercial protein solution samples were dialyzed into PBS as necessary. Amplex Red hydrogen peroxide assay kits (A-12212) were obtained from Molecular Probes.\nAntibody/Protein Irradiation. Unless otherwise stated, the assay solution (100 μl, 6.7 μM protein in PBS, pH 7.4) was added to a glass vial, sealed with a screw-cap, and irradiated with either UV (312 nm, […] Fischer-Biotech transilluminator) or visible light.\nQuantitative Assay for Hydrogen Peroxide. An aliquot (20 μl) from the protein solution was removed and added into a well of a 96-well microtiter plate (Costar) containing reaction buffer (80 μL). Working solution (100 μl/400 μM Amplex Red reagent ½ units/ml horseradish peroxidase) was then added, and the plate was incubated in the dark for 30 min. The fluorescence of the well components was then measured using a CytoFluor Multi well Plate Reader (Series 4000, PerSeptive Biosystems, Framingham, Mass.; Ex/Em: 530/580 nm). The hydrogen peroxide concentration was determined using a standard curve. All experiments were run in duplicate, and the rate is quoted as the mean of at least two measurements."}, "[4]": {"assay": "Consumption of hydrogen peroxide by catalase (peroxide stick test)", "assay_type": "biochemical", "conditions": "1 min after addition of catalase", "procedure": "Consumption of Hydroen Peroxide by Catalase. A solution of EP2-19G12 (100 μl of mouse IgG, 20 μM in PBS, pH 7.4) was irradiated with UV light for 30 min, after which time the concentration of hydrogen peroxide was determined by stick test (EM Quant Peroxide Test Sticks) to be 2 mg/liter."}},
  "note": "“Also recorded” adds a separate entry of the source.",
  "data": [
    {"molecule": "[2H]O[2H]", "note": "[Clone D2O, D2O]", "values": [
      {"measurement": "rate of formation of H2O2 by horse IgG with HP (40 μM) in visible light in the presence of additive", "setting": "[1]", "result": "increased"}
    ]},
    {"molecule": "O=C(O)CN(CCN(CC(=O)O)CC(=O)O)CC(=O)O", "note": "[EDTA]", "values": [
      {"measurement": "effect of presence of EDTA on the survival of bacteria", "setting": "[2]; 2 mM", "result": "no effect"}
    ]},
    {"molecule": "[N-]=[N+]=[N-].[Na+]", "note": "[NaN3]", "values": [
      {"measurement": "rate of formation of H2O2 by horse IgG with HP (40 μM) in visible light in the presence of additive", "setting": "[1]", "result": "reduced"}
    ]},
    {"molecule": "N[C@@H](Cc1c[nH]c2ccccc12)C(=O)O", "note": "[Trp, tryptophan]", "values": [
      {"measurement": "H2O2 production during near-UV irradiation", "setting": "[3]; tryptophan 20 μM, FIG. 11A", "result": "ca. 0.5 mole equivalents"}
    ]},
    {"molecule": "CC1=C(CCC(=O)O)c2cc3[nH]c(cc4nc(cc5[nH]c(cc1n2)c(C)c5C(C)O)C(C)=C4C(C)O)c(C)c3CCC(=O)O", "note": "(stereo not shown) [hematoporphyrin IX]", "values": [
      {"measurement": "bactericidal activity", "setting": "[2]; HPIX 40 μM, white light 1 h, 4 °C", "result": "negligible bactericidal activity"}
    ]},
    {"molecule": "chick ovalbumin: chick-egg ovalbumin", "values": [
      {"measurement": "ability of non-immunoglobulin proteins to reduce ^1O2 / generate H2O2", "setting": "[3]", "result": "one of the most efficient proteins at reducing"}
    ]},
    {"molecule": "superoxide dismutase: enzyme, Sigma", "values": [
      {"measurement": "ability of non-immunoglobulin proteins to reduce ^1O2 / generate H2O2", "setting": "[3]", "result": "the same as irradiation of PBS alone; also recorded: do not reduce; also recorded: does not reside"}
    ]},
    {"molecule": "β-galactosidase: non-immunoglobulin protein, Sigma", "values": [
      {"measurement": "H2O2 generated by photo-production", "setting": "[3]; from its 39 Trp residues, FIG. 8A", "result": 5.9, "unit": "mol eq."}
    ]},
    {"molecule": "B1", "values": [
      {"measurement": "ability of non-immunoglobulin proteins to reduce ^1O2 / generate H2O2", "setting": "[3]", "result": "do not reduce"},
      {"measurement": "ability of non-immunoglobulin proteins to reduce ^1O2 / generate H2O2", "setting": "[3]; listed as RNaseA", "result": "does not reside"}
    ]},
    {"molecule": "B2", "values": [
      {"measurement": "concentration of H2O2 after catalase", "setting": "[4]", "result": 0, "unit": "mg/L"},
      {"measurement": "extent of protection against antigen-specific antibodies", "setting": "[2]; catalase 13 mU/mL", "result": "varied over a wide range"},
      {"measurement": "protection against the bactericidal activity of non-specific antibodies", "setting": "[2]; catalase 13 mU/mL", "result": "complete protection; also recorded: completely attenuated"}
    ]}
  ]
}
